For four compounds, IC50 results are on record in US7666877B2, “Ergoline derivatives” (priority 2005, dated 2010).

Structures are written as SMILES.

Assay [1] concerns the target T1, CXCR3 (Homo sapiens, UniProt P49682).
T1 sequence (P49682 1-368): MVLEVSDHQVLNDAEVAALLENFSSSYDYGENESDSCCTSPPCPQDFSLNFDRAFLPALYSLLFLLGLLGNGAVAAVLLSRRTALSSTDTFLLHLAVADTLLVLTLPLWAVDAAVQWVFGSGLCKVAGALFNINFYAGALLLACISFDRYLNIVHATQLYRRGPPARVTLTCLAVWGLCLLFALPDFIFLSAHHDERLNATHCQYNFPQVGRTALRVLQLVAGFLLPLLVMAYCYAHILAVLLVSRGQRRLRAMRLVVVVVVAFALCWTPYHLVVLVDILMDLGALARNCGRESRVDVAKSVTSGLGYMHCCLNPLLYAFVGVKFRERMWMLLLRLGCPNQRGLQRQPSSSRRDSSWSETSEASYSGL
In words: cell-based. On the set-up: expressed in transfected cells; host or cells: L1.2 cells (mouse pre-B cell line). On the procedure: b) CXCR3 Functional Assay—Ca^2+ Mobilization
CXCR3 ligand-induced Ca^2+ mobilization is assessed in CXCR3 transfected L1.2 cells (a mouse pre B cell line). For this, cells are loaded with the Ca^2+-sensitive fluorochrome Fluo-4 (Molecular Probes). After washing, the cells are pre-incubated with low molecular weight inhibitors for 2 h at room temperature. The transient increase in intracellular Ca^2+ after the addition of the CXCR3 ligand (e.g. I-TAC) is monitored in a fluorescence image plate reader (FLIPR) instrument. The inhibition of CXCR3 ligand induced Ca^2+ mobilization in the presence of CXCR3 antagonists is reported as IC50 values i.e. the concentration of compound which reduces the maximal Ca^2+ response to 50%.

Assay [2] concerns the target T1, CXCR3. Kind of assay: biochemical. In kind it is binding. On the set-up: expressed in transfected cells; host or cells: CHO cells (membrane preparation). On the procedure: a) CXCR3 Membrane Binding Assay
A ligand binding assay is used to identify inhibitors of I-TAC binding to CXCR3 expressing membranes. Cell membranes are prepared from CHO cells transfected with human CXCR3. The binding of the ^125I labeled CXCR3 ligand e.g. I-TAC (CXCL11) to CXCR3 is assessed using the Scintillation Proximity Assay (SPA) technology (Amersham Pharmacia Biotech). Buffer or serial dilutions of compound are incubated for 2 hours at room temperature with labeled CXCR3 ligand (e.g. I-TAC), CXCR3 expressing membranes and WGA coated PVT beads. The plates are then centrifuged and counted in a Topcount (Packard) instrument. The data are reported as the concentration of compound required to achieve 50% inhibition of ^125I ligand binding.

The target of assay [3] is T1, CXCR3. Kind of assay: CXCR3 functional assay - chemotaxis. Format: cell-based. On the set-up: expressed in transfected cells; host or cells: L1.2 cells (mouse pre-B cell line). Particulars: CXCR3 transfected L-1.2 cells; I-TAC; 4 h at 37° C.; read-out: IC50, concentration which leads to a reduction of migrated cells by 50%. On the procedure: c) CXCR3 Functional Assay—Chemotaxis
The directed cell migration induced by CXCR3 ligands e.g. I-TAC is assessed using 96-well disposable chemotaxis chambers (Multiscreen MIC, Costar) with polycarbonate membranes containing pores of 5 μm diameter. Chemokine (e.g. I-TAC) is placed in the bottom well of the chamber and cells (e.g. CXCR3 transfected L-1.2 cells) are placed in the top compartment of the chemotaxis chamber. Cell migration across the porous membrane is allowed for 4 h at 37° C. Cells migrated from the top compartment to the bottom compartment are quantified by flow cytometry. When LMW inhibitors are tested, compounds are added to both compartments at the identical concentrations; Serial dilutions of compounds are tested to assess their inhibitory effect on CXCR3 dependent cell migration. The concentration of LMW CXCR3 inhibitors which leads to a reduction of migrated cells by 50% is reported as IC50. In this assay, the compounds of formula I have an IC50 value from 1 μM-1 nM.

Where [4] appears, read: CXCR3 transfected L1.2 cells (mouse pre B cell line), CXCR3 ligand (e.g. I-TAC), pre-incubation 2 h at room temperature, read-out: IC50, concentration of compound which reduces the maximal Ca2+ response to 50%.
The mark [5] stands for this setting: membranes of CHO cells transfected with human CXCR3, 125I I-TAC (CXCL11), 2 hours at room temperature, read-out: IC50, concentration of compound required to achieve 50% inhibition of 125I ligand binding.

Consider `O=C([C@@H]1C=C2c3cccc4[nH]cc(c34)C[C@H]2N(C(=O)Nc2ccccc2)C1)N1CCC1` [Example 23], for which the IC50 was found to be 8 nM on CXCR3 [1] (setting [4]) and 61 nM on CXCR3 [2] (setting [5]).

Consider `O=C([C@@H]1C=C2c3cccc4[nH]cc(c34)C[C@H]2N(C(=O)Nc2ccccc2F)C1)N1CCCC1` [Example 59], for which the IC50 on CXCR3 [1] (setting [4]) was 20 nM; on CXCR3 [2] (setting [5]), 43 nM.

Turning to `CC(C)OC(=O)Cn1cc2c3c(cccc31)C1=C[C@@H](C(=O)N3CCCC3)CN(C(=O)Nc3ccccc3)[C@@H]1C2` [Example 79, [(6aR,9R)-7-Phenylcarbamoyl-9-(pyrrolidine-1-carbonyl)-6a,7,8,9-tetrahydro-6H-indolo[4,3-fg]quinolin-4-yl]-acetic acid isopropyl ester], the IC50 at CXCR3 [1] turned out to be 53 nM; at CXCR3 [2], 145 nM.

In the case of `O=C([C@@H]1C=C2c3cccc4[nH]cc(c34)C[C@H]2N(C(=O)Nc2ccccc2)C1)N1CCOCC1` [Example 43], the IC50 on CXCR3 [1] worked out at 16 nM; at CXCR3 [3] it was 75 nM; on CXCR3 [2], 23 nM.
